The source of these data is patent US20220039395A1, “INSECT CONTROL AGENTS” (priority 2018, published 2022).

“Also recorded” adds a separate entry of the source. Square brackets hold non-standard residues; d marks the D form. Aib = CC(C)(N)C(=O)O

The subject of one experiment is Macrosiphum rosae. The experiment is described as follows: Desiccation/starvation tolerance assay after peptide microinjection. The experiment is classed as in vivo. The settings on record: Macrosiphum rosae, microinjection; for Documented effect on desiccation/starvation mortality: final concentration ×10^−5 M, relative to vehicle control; for LTime50 (h), test / Median IQR survival (h), test: ×10^−5 M, desiccation and starvation stress, test group. The procedure: (§1) Neuropeptides were administered to test aphids via microinjection to allow for rapid mass screening of neuropeptide analogue efficacy. For this, native neuropeptides were diluted in double distilled water (DDH2O) to a concentration of 1×10^−5 M. Neuropeptide analogues were diluted in DDH2O to the following concentrations: kinin analogues 1728 (2.5×10^−5 M), 2139 (3.5×10^−5 M), 2139-Ac (3.5×10^−5 M); CAP2b analogues 1895 (3.5×10^−5 M), 1896 (3.5×10^−5 M), 1902 (3.5×10^−5 M), 2089 (3.9×10^−5 M), 2123 (1.0×10^−5 M), 2125 (1.0×10^−5 M), 2129 (2.0×10^−5 M). Once at the desired concentration, neuropeptide solutions were administered to test aphids at an injection volume of 9 nl based on total haemolymph volume, to produce an approximate 1:20 dilution of injection volume to haemolymph. Injections were performed using a pulled glass needle and a Nanoject II Auto-Nanoliter Injector (Drummond Scientific Company, Broomall, Pa.). A vehicle control was set up for each treatment/day of experiments to account for variation in needle pulling. For this, control aphids were injected with 9 nl of DDH2O and subsequently exposed to the same experiments as aphids receiving the neuropeptide treatment. Neuropeptide treated and vehicle control aphids were subsequently used in the stress bioassays detailed below.
(§2) Anholocyclic adults of mixed age of either M. persicae or M. rosae were selected from the stock cultures and treated with a native neuropeptide or neuropeptide analogue via microinjection using the method detailed above. Treated and vehicle control aphids were allowed to recover on excised leaves of the host plant for 1 h before being placed in an empty ventilated microcage (L=4 cm, 0=9.5 cm) at densities of 10 per cage. In total, 30-40 aphids were treated for each neuropeptide treatment group and a further 30-40 for the associated vehicle control group. From the point of placement in the microcage (taken as 0 h), aphid survival was checked every hour during daylight hours and approximately every 4 h during night-time hours until the final aphid died. Survival data were subsequently analysed using a Log-rank (Mantel-Cox) text in GraphPad Prism version 7.0. LTime50 (the time taken to kill 50% of the test population) values were calculated via Probit Analysis in Minitab 17 (Minitab Inc., State College, Pa.).

Experiment [1] has as its system Myzus persicae. The experiment is described as above. Conditions: Myzus persicae, microinjection; for Documented effect on desiccation/starvation mortality: final concentration ×10^−5 M, relative to vehicle control; for LTime50 (h), test / Median ± IQR survival (h), test: ×10^−5 M, desiccation and starvation stress, test group. In kind it is in vivo. The procedure: as §1, §2

The test system of the next experiment is M. persicae. Nature of the experiment: Topical application under desiccation/starvation conditions. The settings on record: data not shown. The experiment is classed as in vivo, Myzus persicae. On the procedure: For peptides 2315, 2320 and 2125, peptides were diluted individually in an Armid FMPC formulation (AkzoNobel Surface Chemistry, Stenungsund, Sweden) to concentration of 1×10^−5 M. Using a Nanoject II Auto-Nanoliter micro-injector, 9 nl of the peptide solution was applied topically to the abdomen of a pre-reproductive adult aphid, coating the cuticle in the solution. Aphids were returned to the host plant and allowed to recover for 24 h before use in experiments. Control aphids were topically applied with 9 nl of the Armid FMPC formulation and, once again, allowed to recover for 24 h on the host plant before use in experiments.
as §2, with “In total, 30-40 aphids were treated for each neuropeptide treatment group and a further 30-40 for the associated vehicle control group. From the point of placement in the microcage (taken as 0 h), aphid survival was checked every hour during daylight hours and approximately every 4 h during night-time hours until the final aphid died.” left out

The test system of experiment [2] is Myzus persicae. Nature of the experiment: Cold tolerance bioassay at the discriminating temperature after microinjection. The experiment is classed as in vivo. The settings on record: M. persicae, 1 h at −9.7° C., survival assessed after 48 h, vs control. The procedure: Neuropeptides were administered to test aphids via microinjection to allow for rapid mass screening of neuropeptide analogue efficacy. For this, native neuropeptides were diluted in double distilled water (DDH2O) to a concentration of 1×10^−5 M. Neuropeptide analogues were diluted in DDH2O to the following concentrations: kinin analogues 1728 (2.5×10^−5 M), 2139 (3.5×10^−5 M), 2139-Ac (3.5×10^−5 M); CAP2b analogues 1895 (3.5×10^−5 M), 1896 (3.5×10^−5 M), 1902 (3.5×10^−5 M), 2089 (3.9×10^−5 M), 2123 (1.0×10^−5 M), 2125 (1.0×10^−5 M), 2129 (2.0×10^−5 M). […]
For this reason, and given its global pest status, only M. persicae was taken forward in cold stress assays. […] Following exposure, aphids were allowed to recover at the culture temperature in microcages containing excised leaves of the host plant and survival was assessed after 48 h. […]
Survival data were analysed using Probit analysis in MINITAB, version 17 (Minitab Inc., State College, Pa.) and the LT30 (the lethal temperature resulting in 30% mortality of a test population) was elucidated.
Pre-reproductive anholocyclic adult aphids of M. persicae were treated with neuropeptide analogues using the microinjection method detailed above. […] Following exposure, adults were allowed to recover at the culture temperature in microcages containing excised leaves of the host plant and survival was assessed after 48 h. […]

Consider 2Abf-Suc-FT[Oic]RV-NH2 [compound 2125], for which, in the experiment on Macrosiphum rosae, the “Documented effect on desiccation/starvation mortality” value was “non-significant survival curves; also recorded: No effect”; the “LTime50 (h), test” value is 21.6 | 20.1 h; the “Median IQR survival (h), test” value was 24.0 ± 9.25 | 20.5 ± 18.0 h. In the experiment on Myzus persicae [1], the “Documented effect on desiccation/starvation mortality” value is given as “non-significant survival curves; also recorded: No effect”; the “LTime50 (h), test” value was 10.8 | 13.0 h; the “Median ± IQR survival (h), test” value is listed as 11.0 ± 12.0 | 11.0 ± 12.0 h. Further, the effect on mortality entry with M. persicae is “significantly increased mortality”.

As to “Ac-FF[Aib]WG-NH2 [2139-AC, reference compound]”, in the experiment with Macrosiphum rosae, the “Documented effect on desiccation/starvation mortality” value is “No effect”; the “LTime50 (h), test” value is listed as 44.0 | 40.1 h; the “Median IQR survival (h), test” value was 39.0 ± 37.0 | 35.0 ± 32.0 h. For the same substance, in the experiment on Myzus persicae [1], the “Documented effect on desiccation/starvation mortality” value is “No effect”; the “LTime50 (h), test” value was 19.4 | 16.7 h; the “Median ± IQR survival (h), test” value is 22.5 ± 19.8 | 20.0 ± 14.0 h. Moreover, the “Effect on survival/mortality under cold stress” value in the experiment with Myzus persicae [2] is “acting to increase survival relative to the control”.
